Patent US20260014184A1, “ADENOSINE DERIVATIVES FOR USE IN THE TREATMENT OF NEURODEGENERATIVE DISORDERS AND CANCER” (UNIVERSITY COLLEGE CARDIFF CONSULTANTS LIMITED, priority 2022, published 2026)
“Also recorded” adds a separate entry of the source. Read-outs that look alike come from different tables or passages of the source.

Experiments:
[1] = test system: ubiquitin Ser65 phosphorylation; assay: Ubiquitin Ser65 phosphorylation in astrocytes with or without valinomycin; format: cell-based; settings: for ubiquitin Ser65 phosphorylation after pre-treatment followed by valinomycin, compared to valinomycin alone: 50 μM 24 h, 50 nM valinomycin for 5 h; for ubiquitin Ser65 phosphorylation, compound alone: 50 μM, 24 h
Experimental: Briefly, astrocytes were treated with 50 μM of the nucleobase kinetin, nucleosides 9a and 9c or DMSO for 24 h and 5 h prior to lysis, the samples were treated with 50 nM valinomycin, a mitochondrial uncoupler.

[2] = test system: HeLa cells transfected with YFP-parkin; assay: Immunofluorescence for YFP-parkin localisation and TOM20 (mitochondrial fragmentation); format: cell-based
Experimental: (§1) Cells were seeded on PerkinElmer PhenoPlate 96-well plates, followed by treatment with compounds. Cells were fixed in chilled 4% PFA for 10 min followed by washes in PBS. […] Following PBS washes, cells were blocked using blocking buffer (PBS, 5% BSA, 0.1% Tween20) for 1 h at room temperature. Primary antibodies were diluted in blocking buffer and added to cells to be incubated overnight at 4° C. Cells were subsequently washed with PBS-T and the appropriate secondary antibodies (diluted in blocking buffer) were added for 2 h at room temperature in darkness. 10 μg/ml of Hoechst 33258 stain was added with secondary antibodies when required. Cells were again washed with PBS-T followed by addition of PBS with 0.02% sodium azide. Cells were then stored at 4° C. until ready for imaging. Primary antibodies used for immunofluorescence are as follows: Phospho-Ub Ser 65 (Sigma-Aldrich cat #ABS1513-1), TOM20 (Santa-Cruz cat #sc-17764). Secondary antibodies and stains used in immunofluorescence; Anti-IgG2a Alexa Fluor™ 546 (ThermoFisher cat #A21133) Anti-rabbit Alexa Fluor™ 647 (ThermoFisher cat #A21244), Hoechst 33258 stain (Sigma-Aldrich cat #B2883).
(§2) Confocal microscopy was performed using a Zeiss LSM800 w/Airyscan fluorescent microscope equipped with lasers emitting at 405 nm, 488 nm, 561 nm and 640 nm. All images were captured using a 40x oil immersion objective lens and processed using Zeiss ZEN software. Images were analysed and quantified using Columbus (PerkinElmer) and TIBCO Spotfire software.
(§3) First, HeLa cells transfected with YFP-parkin were either left untreated or treated with 50 μM kinetin riboside, nucleosides 9a and 9c for 24 h.

Ub Ser65 phosphorylation [3] = assay: Immunofluorescence for Ub Ser65 phosphorylation in YFP-parkin transfected HeLa cells; format: cell-based
Experimental: as §1, §2, §3

PINK1 [4] = target: T1, PINK1 (Homo sapiens, UniProt Q9BXM7); assay: PINK1 activation in cells judged by parkin Ser65 phosphorylation (parkin-transfected HeLa cells); format: cell-based; settings: 50 μM, 1 h
T1 construct: HeLa cells, which express PINK1 endogenously; endogenous in cells; host or cells: HeLa cells transiently transfected with parkin
T1 sequence (Q9BXM7 78-581): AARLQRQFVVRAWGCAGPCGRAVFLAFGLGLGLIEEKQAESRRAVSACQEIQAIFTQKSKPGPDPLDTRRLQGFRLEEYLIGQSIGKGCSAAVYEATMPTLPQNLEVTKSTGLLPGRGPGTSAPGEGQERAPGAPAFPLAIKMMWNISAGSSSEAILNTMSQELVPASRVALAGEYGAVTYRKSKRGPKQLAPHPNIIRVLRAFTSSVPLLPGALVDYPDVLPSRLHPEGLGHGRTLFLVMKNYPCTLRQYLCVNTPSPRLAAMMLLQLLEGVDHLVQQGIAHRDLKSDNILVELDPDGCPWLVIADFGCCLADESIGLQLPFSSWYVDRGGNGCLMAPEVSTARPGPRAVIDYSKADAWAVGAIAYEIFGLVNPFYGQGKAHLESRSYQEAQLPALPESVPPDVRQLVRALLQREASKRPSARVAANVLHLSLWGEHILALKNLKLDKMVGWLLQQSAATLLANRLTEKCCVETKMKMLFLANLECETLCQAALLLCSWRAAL
Experimental: (§4) Both HeLa and parkin-overexpressed HeLa cells were maintained in DMEM high glucose (Gibco), 10% FBS (Sigma-Aldrich) at 37° C. with 5% CO2. For experiments, cells were counted and seeded into a range of culture plates, depending on the experiment, cell counting was done using the Cellometer Auto T4 with TrypanBlue (Gibco). […] Alternatively, HeLa cells were seeded in well plates and then transfected with […] of parkin cDNA using the PEI method once the plated cells reached 60% confluency. After 6 hours, the media was changed. Sub-culturing was done when the cells reached ˜90% confluency.
(§5) Cell culture with 70-80% confluency was lysed as follows: cells were washed with Phosphate Buffer Saline (PBS) (Sigma). 150 μl of lysis buffer was used on each well containing either: • 50 mM Tris-HCl pH 7.5, 1 mM EDTA, 1 mM EGTA, 0.27 M sucrose, 1 mM Na3VO4, 50 mM NaF, 5 mM Na pyrophosphate and fresh 1 mM benzamidine, 1% NP-40 and […]; or • 50 mM Tris-HCl pH 7.5, 1 mM EDTA, 1 mM EGTA, 10 mM Na β-glycerophosphate, 0.27 M sucrose, 1 mM Na3VO4, 50 mM NaF, 10 mM Na pyrophosphate with fresh 1 mM benzamidine, 1% Triton X-100, complete EDTA-free Protease Inhibitor, Phosphatase inhibitor cocktail 3 and 100 μM of 2-chloroacetamide.
(§6) The cells were scrapped and transferred to the microtube and eventually spun down at 12,000 rpm for 15 minutes at 4° C. Finally, the supernatant was transferred to the new microtubes and stored at −20° C. Protein concentration was measured using Bradford Assay. Serial concentrations 0.125; 0.25; 0.5 and 1 mg/ml of Bovine Serum Albumin (BSA) (Sigma Aldrich) were used as a standard. Samples were boiled at 90° C. for 5 minutes in SDS sample loading buffer.

PINK1 [5] = target: T1, PINK1; settings: in presence of the de-polarizing agent CCCP; cited from earlier work
Ub Ser65 phosphorylation [6] = assay: Phospho-Ub (Ub Ser65) immunoblotting in parkin- or YFP-parkin-transfected HeLa cells; format: cell-based; settings: immunoblot; for ubiquitin phosphorylation, niclosamide or CCCP only (controls): YFP-parkin HeLa cells, 10 μM, 1 h; for phosphorylation of Ub at Ser65, niclosamide or CCCP treatment alone (controls): 10 μM CCCP 3 h
Experimental: as §4, §5, §6
The next day membranes were washed in TBST and incubated with horse radish peroxidase (HRP)-conjugated antibodies for 1 h at room temperature with agitation. Following TBST washes, proteins were visualised using Amersham™ ECL™ Prime kit (GE Biosciences) and imaged using the Bio-rad ChemicDoc. Primary antibodies used for western blotting; GAPDH (Abcam cat #ab9485), Phospho-Ub Ser 65 (Sigma-Aldrich cat #ABS1513-1), LC3B (Cell Signaling cat #3868S). Secondary antibodies used for western blotting; anti-rabbit HRP (Agilent Dako cat #P0399), anti-mouse HRP (Agilent Dako cat #P0260).
(§7) To explore this, we first treated parkin-transfected HeLa cells for 24 h with 50 μM kinetin, kinetin riboside or kinetin riboside ProTide, a monophosphate prodrug of kinetin riboside.

[7] = test system: HeLa cells transfected with YFP-parkin; assay: TMRM fluorescence (mitochondrial membrane potential); format: cell-based
Experimental: For assessing tetramethylrhodamine methyl ester perchlorate (TMRM) fluorescence, cell media was removed and replaced with cell media consisting of 5 nM TMRM (ThermoFisher) and 10 μg/ml Hoechst 33258 stain for 30 mins in the dark at 37° C. to allow incorporation of TMRM into mitochondria. Following PBS washes, FluoroBrite DMEM (Gibco) media was added to cells, followed by subsequent imaging using a Zeiss LSM800 microscope at 37° C. with 5% CO2.

OPA1 = OPA1 cleavage immunoblot (mitochondrial membrane depolarization) in parkin-transfected HeLa cells; format: cell-based; settings: 10 μM CCCP 3 h
Experimental: as §4, §5, §6, §7

PINK1 KO MEFs = assay: MitoQC mitophagy assay, PINK1 knock-out MEF; format: cell-based; settings: 20 μM CCCP, 24 h
Source text: (§8) With the inhibition of ubiquitin phosphorylation and parkin localisation to the mitochondria by kinetin riboside and the nucleoside analogue 9c, we next asked whether these compounds still induce mitophagy in a PINK1 dependent manner. To explore this, we employed the established MitoQC assay for measuring mitophagy in cells^11,12.

[8] = test system: immortalised MEF expressing PINK1 wild-type (WT); assay: MitoQC mitophagy assay, MEF expressing PINK1 wild-type; format: cell-based; settings: 20 μM CCCP, 24 h
Source text: as §8

[9] = 50 μM, 24 h, no niclosamide or CCCP

Question: For `CNc1ncnc2c1ncn2[C@@H]1O[C@H](CO)[C@@H](O)[C@H]1O` [9a, (2R,3S,4R,5R)-2-(hydroxymethyl)-5-(6-(methylamino)-9H-purin-9-yl)tetrahydrofuran-3,4-diol], which “ubiquitin Ser65 phosphorylation after pre-treatment followed by valinomycin, compared to valinomycin alone” value [1] is on record?
Answer: The value was “significant suppression of ubiquitin Ser65 phosphorylation”.

Question: What about the “ubiquitin Ser65 phosphorylation, compound alone” value [1] of the same compound?
Answer: The value was “increased phosphorylation”.

Question: What about the “parkin localisation to the mitochondria after pre-treatment followed by CCCP, compared to CCCP alone” value ([2]; 50 μM 24 h, then 10 μM CCCP) of the same compound?
Answer: Its value is “did not have a significant impact”.

Question: What about the “impact on mitochondrial fragmentation (TOM20), compound alone” value [2, 9] of the same compound?
Answer: Its value is “did not have any impact”.

Question: And the “impact on parkin localisation, compound alone” value [2, 9]?
Answer: The value was “did not have any impact”.

Question: And the “ubiquitin Ser65 phosphorylation after pre-treatment followed by CCCP, compared to CCCP alone” value (Ub Ser65 phosphorylation [3]; 50 μM 24 h, then 10 μM CCCP, immunofluorescence)?
Answer: The value was “did not have a significant impact”.

Question: What about the “impact on ubiquitin phosphorylation, compound alone” value (Ub Ser65 phosphorylation [3]; 50 μM, 24 h, no niclosamide or CCCP, immunofluorescence) of the same compound?
Answer: Its value is “did not have any impact”.

Question: Which “activation of PINK1 as judged by parkin Ser65 phosphorylation” value (PINK1 [4]) does the source give for `CC(C)(C)CNc1ncnc2c1ncn2[C@@H]1O[C@H](CO)[C@@H](O)[C@H]1O` [9f, (2R3S,4R,5R)-2-(hydroxymethyl)-5-(6-(neopentylamino)-9K-purin-9-yl)tetrahydrofuran-3,4-diol] here?
Answer: Its value is “exhibited pronounced activation of PINK1 apart from compound 9f”.

Question: For `c1coc(CNc2ncnc3[nH]cnc23)c1` [kinetin, reference compound], which “PINK1 activation in cells exposed to CCCP” value (PINK1 [5]) is on record?
Answer: Its value is “enhanced PINK1 activation”.

Question: And the “ubiquitin Ser65 phosphorylation after pre-treatment followed by valinomycin, compared to valinomycin alone” value [1]?
Answer: Its value is “significant suppression of ubiquitin Ser65 phosphorylation”.

Question: What about the “ubiquitin Ser65 phosphorylation, compound alone” value [1] of the same compound?
Answer: The value was “increased phosphorylation”.

Question: And the “inhibition of CCCP-induced phosphorylation of ubiquitin by pre-treatment” value (Ub Ser65 phosphorylation [6]; parkin-transfected HeLa cells, 50 μM 24 h, then 10 μM CCCP 3 h)?
Answer: Its value is “did not”.

Question: What about the “phosphorylation of ubiquitin (Ub Ser65), compound alone” value (Ub Ser65 phosphorylation [6]; parkin-transfected HeLa cells, 50 μM, 24 h, no CCCP) of the same compound?
Answer: The value was “did not lead to any notable phosphorylation of ubiquitin”.

Question: With `O=C(Nc1ccc([N+](=O)[O-])cc1Cl)c1cc(Cl)ccc1O` [niclosamide, reference compound] as the compound, how does the “mitochondrial membrane potential, niclosamide or CCCP” value ([7]; 10 μM, data not shown) read?
Answer: The value was “membrane potential collapse”.

Question: What about the “phosphorylation of ubiquitin, niclosamide or CCCP alone” value (Ub Ser65 phosphorylation [3]; YFP-parkin HeLa cells, 10 μM, 1 h, immunofluorescence) of the same compound?
Answer: Its value is “induced significant phosphorylation of ubiquitin”.

Question: And the “OPA1 cleavage (mitochondrial membrane depolarization), niclosamide or CCCP alone” value (OPA1)?
Answer: The value was “led to OPA1 cleavage”.

Question: And the “ubiquitin phosphorylation, niclosamide or CCCP only (controls)” value (Ub Ser65 phosphorylation [6])?
Answer: The value was “induced strong ubiquitin phosphorylation”.

Question: What about the “phosphorylation of Ub at Ser65, niclosamide or CCCP treatment alone (controls)” value (Ub Ser65 phosphorylation [6]; parkin-transfected HeLa cells) of the same compound?
Answer: The value was “strong phosphorylation of Ub at Ser65”.

Question: Which “mitochondrial membrane potential, niclosamide or CCCP” value [7] does the source give for “carbonyl cyanide m-chlorophenyl-hydrazine [CCCP, reference compound]” here?
Answer: The value was “membrane potential collapse”.

Question: And the “parkin localisation to the mitochondria, CCCP treatment alone” value ([2]; 10 μM CCCP)?
Answer: The value was “promoted parkin localisation to the mitochondria”.

Question: And the “phosphorylation of ubiquitin, niclosamide or CCCP alone” value (Ub Ser65 phosphorylation [3])?
Answer: The value was “induced significant phosphorylation of ubiquitin; also recorded: induced strong ubiquitin phosphorylation”.

Question: And the “mitophagy in PINK1 KO MEFs, CCCP” value (PINK1 KO MEFs)?
Answer: The value was “not in PINK1 KO MEFs”.

Question: And the “OPA1 cleavage (mitochondrial membrane depolarization), niclosamide or CCCP alone” value (OPA1)?
Answer: Its value is “led to OPA1 cleavage; also recorded: associated with cleavage of OPA1”.

Question: And the “ubiquitin phosphorylation, niclosamide or CCCP only (controls)” value (Ub Ser65 phosphorylation [6])?
Answer: Its value is “induced strong ubiquitin phosphorylation”.

Question: And the “phosphorylation of Ub at Ser65, niclosamide or CCCP treatment alone (controls)” value (Ub Ser65 phosphorylation [6]; parkin-transfected HeLa cells)?
Answer: The value was “strong phosphorylation of Ub at Ser65”.

Question: What about the “mitophagy in PINK1 WT MEFs, CCCP” value [8] of the same compound?
Answer: The value was “induced an increase in mitophagy”.
